Measured values as given in patent publication US6500858B2, “Taxoid anti-tumor agents and pharmaceutical compositions thereof” (The Research Foundation of the state University of New York, priority 1994, dated 2002).
Values joined by “and” are separate entries in the source; they are usually repeats but may differ in a detail not shown here. Equal values may be shown once. “Also recorded” adds a separate entry of the source. Read-outs that look alike come from different tables or passages of the source. Each block holds one compound with its values, some of them ahead of it.

How the values were obtained:
[1] = tested on: HT-29 (colon carcinoma); test: tumor cell growth inhibition (SRB, 72 h drug exposure); format: cell-based, human; conditions: for IC50: 72 h drug exposure
Description: (§1) Lower numbers indicate higher potency. […] The data represent the mean values of at least three separate experiments. Lower numbers indicate greater activity.
(§2) Assessment of cell growth inhibition was determined according to the methods of Skehan et al., J. Nat. Cancer Inst. […] Briefly, cells were plated between 400 and 1200 cells/well in 96 well plates and incubated at 37° C. for 15-18 h prior to drug addition to allow attachment of cells. […] After a 72 h incubation, […] of ice-cold 50% TCA was added to each well and incubated for 1 h at 4° C. Plates were then washed 5 times with tap water to remove TCA, low-molecular-weight metabolites and serum proteins. Sulforhodamine B (SRB) (0.4%, […]) was added to each well. Following a 5 min incubation at room temperature, plates were rinsed 5 times with 0.1% acetic acid and air dried. […] Optical density was measured at 570 nm.

[2] = tested on: MCF7 (mammary carcinoma); test: as above; format: cell-based, human; conditions: for IC50: 72 h drug exposure
Description: as §1, §2

[3] = tested on: MCF7-R (mammary carcinoma cells 180-fold resistant to adriamycin); test: as above; format: cell-based, human; conditions: for IC50: 72 h drug exposure
Description: as §1, §2

[4] = tested on: A549 (non-small cell lung carcinoma); test: as above; format: cell-based, human; conditions: for IC50: 72 h drug exposure, read-out: A549 (NSCLC) IC50
Description: as §1, §2

[5] = tested on: A121 (ovarian carcinoma); test: as above; format: cell-based, human; conditions: for IC50: 72 h drug exposure
Description: as §1, §2

[6] = tested on: LCC6-MDR: MDR1 transduced line; test: cytotoxicity assay of second generation taxoids; format: cell-based, human; conditions: for activity against drug-resistant vs drug-sensitive cell lines, in words: LCC6 and MCF7 pairs
[7] = tested on: LCC6-WT: human breast carcinoma; test: cytotoxicity assay of second generation taxoids; format: cell-based; conditions: 72 h drug exposure, read-out: LCC6-WT IC50
Description: A cytotoxicity assay of these new second generation taxoids was performed on human breast cancer cell lines, LCC6-WT and LCC-MDR, and selected taxoids were also assayed for their potency against MCF7 and MCF7-R (Skehan, P., et al., J. Nat. Cancer Inst. 1990, 82, 1107-1112).

[8] = tested on: MCF-7 ADRr; test: growth inhibition by cell counts, 72 h; format: cell-based, human; conditions: read-out: MCF-7 ADRr IC50
Description: (§3) Cells were plated in 6-well flat bottom plates (Falcon, Lincoln Park, N.J.) at a concentration of 10^5 cells ml in complete medium. After 24 h, the medium was replaced with media containing the test substances. Control cells were treated with vehicle alone. Cells were then washed twice and cultures maintained up to 72 h in complete medium (without removing the test substances). At this time point quadruplicate counts of triplicate cultures were performed. To calculate the growth inhibition effect, three independent experiments were performed for each test substance/cell line. The IC50 values were then calculated by fitting the concentration-effect curve data obtained in the three experiments with the sigmoid-Emax model using nonlinear regression, weighted by the reciprocal of the square of the predicted effect according to the method of Motulsky, H. J. and Ransnas, L. A., FASEB J. 1:365-74 (1987).

[9] = tested on: WiDr; test: growth inhibition by cell counts, 72 h; format: cell-based, human; conditions: read-out: WiDr IC50
Description: as §3

[10] = tested on: MCF-7 wt; test: growth inhibition by cell counts, 72 h; format: cell-based, human; conditions: read-out: MCF-7 wt IC50
Description: as §3

[11] = tested on: DU-145; test: growth inhibition by cell counts, 72 h; format: cell-based, human; conditions: read-out: DU-145 IC50
Description: as §3

[12] = tested on: NCI-H23; test: growth inhibition by cell counts, 72 h; format: cell-based, human; conditions: read-out: NCI-H23 IC50
Description: as §3

[13] = tested on: A2780; test: growth inhibition by cell counts, 72 h; format: cell-based, human; conditions: read-out: A2780 IC50
Description: as §3

[14] = tested on: B16 melanoma; test: intravenous administration to mice bearing B16 melanoma; format: in vivo, B6D2F1 female mice; set-up: key to Responses (activity rating): A = active; HA = highly active
Description: (§4) The efficacy of the test compounds on solid tumors in vivo was determined experimentally according to the following general experimental protocol:
(§5) The mice subjected to the experiment were subcutaneously grafted bilaterally with 30 to 60 mg of a tumor fragment on day zero. Mice bearing tumors were mixed before being subjected to the various treatments and controls. In the case of treatment of advanced tumors, tumors were allowed to develop to the desired size, and mice having insufficiently developed tumors were eliminated. The selected mice were distributed at random to undergo the treatments and controls. Mice not bearing tumors may also be subjected to the same treatments as the tumor-bearing mice in order to be able to dissociate the toxic effect from the specific effect on the tumor. Chemotherapy generally began from 3 to 22 days after grafting, depending on the type of tumor, and the mice were observed every day. The different mice groups were weighed 3 or 4 times a week until the maximum weight loss was attained (nadir), and the groups were then weighed at least once a week until the end of the trial.
(§6) The tumors were measured 2 or 3 times a week until the tumor reached approximately 2 grams, or until the animal died, if this occurred before the tumor reached 2 grams. The mice were autopsied when sacrificed.
(§7) The antitumor activity was determined in accordance with different parameters recorded such as dose (mg/kg), mode of administration, time of administration, cytotoxicity, toxicity and log10 cell kill.
SB-T-1213, SB-T-121303, SB-T-121304 and SB-T-1250 were evaluated in B6D2F1 female mice bearing B16 melanoma. The general experimental protocol was as described above. The compounds evaluated were administered intravenously (iv) on an intermittent schedule on days 3, 5, and 7 post tumor implantation. With the exception of SB-T-1250, solutions of the compounds for administration were prepared in 5% ethanol, 5% polysorbate 80, and 90% glucose 5% water.

[15] = tested on: docetaxel-resistant melanoma, B16/TXT; test: intravenous administration to B16/TXT melanoma-bearing mice; format: in vivo, B6D2F1 female mice; set-up: key to Responses (activity rating): A = active; HA = highly active
Description: as §4, §5, §6, §7
SB-T-1213, SB-T-121303, SB-T-121304 and SB-T-1250 were evaluated in B6D2F1 female mice bearing the docetaxel-resistant melanoma, B16/TXT. The general experimental protocol was as described above. The compounds evaluated were administered intravenously on an intermittent schedule on days 3, 5, and 7 post tumor implantation.

[16] = tested on: PC-3; test: growth inhibition by cell counts, 72 h; format: cell-based, human; conditions: 72 h
Description: as §3

[17] = Table 1, read-out: MCF7 (breast) IC50

Compound: CC(=O)OC1C(=O)C2(C)C(O)CC3OCC3(OC(C)=O)C2C(OC(=O)c2ccccc2)C2(O)CC(OC(=O)C(O)C(NC(=O)OC(C)(C)C)C(F)(F)F)C(C)=C1C2(C)C (centres unmarked) [Taxoid Ig, 3′-Dephenyl-3 ′-trifluoromethyl-10-acetyldocetaxel]
- IC50 [1]: 0.4 nM
- IC50 [2, 17]: 0.25 nM
- IC50 ([3]; Table 1): 17 nM
- IC50 [4]: 0.25 nM
- IC50 [5]: 0.37 nM

Compound: CC(=O)O[C@@]12CO[C@@H]1C[C@H](O)[C@@]1(C)C(=O)[C@H](O)C3=C(C)[C@@H](OC(=O)[C@H](O)[C@@H](NC(=O)OC(C)(C)C)c4ccccc4)C[C@@](O)([C@@H](OC(=O)c4ccccc4)[C@H]21)C3(C)C [Docetaxel, docetaxel, reference compound]
- IC50 ([6]; Homo sapiens, LCC6MDR, 72 h drug exposure, read-out: LCC6-MDR IC50): 120 nM
- IC50 ([7]; Homo sapiens): 1 nM
- IC50 ([1]; Homo sapiens, HT-29): 1.2 nM
- IC50 ([2]; Homo sapiens, MCF7, Table 1, read-out: MCF7 (breast) IC50): 1 nM
- IC50 ([2]; Homo sapiens, MCF7, Table 3, read-out: MCF7 IC50): 1 nM
- IC50 ([4]; Homo sapiens, A549): 1 nM
- IC50 ([5]; Homo sapiens, A121): 1.2 nM
- IC50 ([8]; Homo sapiens, MCF7, 72 h): 970 nM
- IC50 ([9]; Homo sapiens, WiDr): 2.3 nM
- IC50 ([10]; Homo sapiens, MCF7, 72 h): 3.6 nM
- IC50 ([11]; Homo sapiens, DU-145, 72 h): 0.8 nM
- IC50 ([12]; Homo sapiens, NCI-H23, 72 h): 3 nM
- IC50 ([13]; Homo sapiens, A2780, 72 h): 4.95 nM

Compound: CC=CC(NC(=O)OC(C)(C)C)C(O)C(=O)OC1CC2(O)C(OC(=O)c3ccccc3)C3C4(OC(C)=O)COC4CC(O)C3(C)C(=O)C(OC(C)=O)C(=C1C)C2(C)C (centres unmarked) [Taxoid Ia, 3′-dephenyl-3′-(1-propenyl)-10-acetyldocetaxel]
- IC50 [1]: 0.76 nM
- IC50 [2, 17]: 0.51 nM
- IC50 ([3]; Table 1): 14 nM
- times better activity than docetaxel ([3]; MCF7-R): 17 times
- times better activity than paclitaxel ([3]; MCF7-R): 21 times
- IC50 [4]: 0.54 nM
- IC50 [5]: 0.9 nM

Compound: 3′-dephenyl-3′-(2,2-dimethyl-1-cyclopropyl)-10-acetyldocetaxel [SB-T-1250]
- Responses (activity rating) ([14]; 4.5 mg/kg/adm.): A
- T/C ([14]; 4.5 mg/kg/adm., days 3, 5, 7): 23%
- log10 cell kill ([14]; 4.5 mg/kg/adm., days 3, 5, 7): 1.2
- % body weight loss at nadir ([14]; 4.5 mg/kg/adm., days 3, 5, 7, 4.5 mg/kg): 12.5% and 12.5 (3) %
- drug related deaths (DD) ([14]; 7.3 mg/kg/adm., days 3, 5, 7): ⅕
- drug related deaths (DD) ([14]; 11.8 mg/kg/adm., days 3, 5, 7): ⅗
- drug related deaths (DD) ([14]; 19 mg/kg/adm., days 3, 5, 7): 100%
- highest nontoxic dose ([14]; days 3, 5, 7): 4.5 mg/kg/adm.
- T/C ([15]; 2.8 mg/kg/adm., days 3, 5, 7): 152%
- T/C ([15]; 4.5 mg/kg/adm., days 3, 5, 7): 108%
- Responses (activity rating) ([15]; 7.3 mg/kg/adm.): A
- T/C ([15]; 7.3 mg/kg/adm., days 3, 5, 7): 41%
- log10 cell kill ([15]; 7.3 mg/kg/adm., days 3, 5, 7): 1.1
- % body weight loss at nadir ([15]; 7.3 mg/kg/adm., days 3, 5, 7, 7.3 mg/kg): 16.7% and 16.7 (4) %
- highest nontoxic dose ([15]; days 3, 5, 7): 7.3 mg/kg/adm.
- IC50 ([8]; 72 h): 48 nM
- IC50 [9]: 0.5 nM
- IC50 ([10]; 72 h): 2.3 nM
- IC50 [16]: 0.7 nM
- IC50 ([11]; 72 h): 0.6 nM
- IC50 ([12]; 72 h): 1.6 nM
- IC50 ([13]; 72 h): 3.03 nM

Compound: CC(=O)O[C@@]12CO[C@@H]1C[C@H](O)[C@@]1(C)C(=O)[C@H](O)C3=C(C)[C@@H](OC(=O)[C@H](O)[C@H](CC(C)(C)C)NC(=O)OC(C)(C)C)C[C@@](O)([C@@H](OC(=O)c4ccccc4)[C@H]21)C3(C)C [3′-dephenyl-3′-neopentyldocetaxel]
- cytotoxicity in words ([1]; HT-29 human colon): virtually not cytotoxic
- cytotoxicity in words ([2]; MCF7 human breast): virtually not cytotoxic
- cytotoxicity in words ([4]; A549 human non-small cell lung): virtually not cytotoxic
- cytotoxicity in words ([5]; A121 human ovarian): virtually not cytotoxic

The next lines start with results.

- IC50 ([2]; Table 3, read-out: MCF7 IC50): 0.36 nM
- IC50 ([3]; Table 3): 0.33 nM
Compound: CCC(=O)OC1C(=O)C2(C)C(O)CC3OCC3(OC(C)=O)C2C(OC(=O)c2cccc(OC)c2)C2(O)CC(OC(=O)C(O)C(C=C(C)C)NC(=O)OC(C)(C)C)C(C)=C1C2(C)C (centres unmarked) [Taxoid 7f, 3′-Dephenyl-3′-(2-methylprop-1-enyl)-2-debenzoyl-2-(3-methoxybenzoyl)-10-propanoyldocetaxel]
- activity against drug-resistant vs drug-sensitive cell lines, in words [6]: slightly better activity against the drug-resistant cell lines; also recorded: virtually no difference in activity
- IC50 [7]: 1 nM

- IC50 ([2]; Table 3, read-out: MCF7 IC50): 0.9 nM
- IC50 ([3]; Table 3): 1.1 nM
Compound: CCC(=O)OC1C(=O)C2(C)C(O)CC3OCC3(OC(C)=O)C2C(OC(=O)c2cccc(N=[N+]=[N-])c2)C2(O)CC(OC(=O)C(O)C(C=C(C)C)NC(=O)OC(C)(C)C)C(C)=C1C2(C)C (centres unmarked) [Taxoid 7o, 3′-Dephenyl-3′-(2-methylprop-1-enyl)-2-debenzoyl-2-(3-azidobenzoyl)-10-propanoyldocetaxel]
- activity against drug-resistant vs drug-sensitive cell lines, in words [6]: virtually no difference in activity
- IC50 [7]: 0.9 nM

- IC50 ([2]; Table 3, read-out: MCF7 IC50): 0.4 nM
- IC50 ([3]; Table 3): 4.3 nM
Compound: CCC(=O)OC1C(=O)C2(C)C(O)CC3OCC3(OC(C)=O)C2C(OC(=O)c2cccc(OC)c2)C2(O)CC(OC(=O)C(O)C(NC(=O)OC(C)(C)C)C(F)F)C(C)=C1C2(C)C (centres unmarked) [Taxoid 7g, 3′-Dephenyl-3′-difluoromethyl-2-debenzoyl-2-(3-methoxybenzoyl)-10-propanoyldocetaxel]
- IC50 [7]: 1.5 nM

- IC50 ([2]; Table 3, read-out: MCF7 IC50): 0.6 nM
- IC50 ([3]; Table 3): 1.5 nM
Compound: CCC(=O)OC1C(=O)C2(C)C(O)CC3OCC3(OC(C)=O)C2C(OC(=O)c2cccc(OC)c2)C2(O)CC(OC(=O)C(O)C(NC(=O)OC(C)(C)C)[C@H]3CC3(C)C)C(C)=C1C2(C)C (stereo partly drawn) [Taxoid 7j, 3′-Dephenyl-3′-[(S)-2,2-dimethylcyclopropyl]-2-debenzoyl-2-(3-methoxybenzoyl)-10-propanoyldocetaxel]
- IC50 [7]: 0.48 nM
